# pIC50: −log10 of the molar value.
# Biological target: PIK3CA (human) (UniProt P42336)
# Assay: Inhibition of PIK3CA Kinase Activity
# Sequence of PIK3CA (human) (P42336 whole entry, looked up): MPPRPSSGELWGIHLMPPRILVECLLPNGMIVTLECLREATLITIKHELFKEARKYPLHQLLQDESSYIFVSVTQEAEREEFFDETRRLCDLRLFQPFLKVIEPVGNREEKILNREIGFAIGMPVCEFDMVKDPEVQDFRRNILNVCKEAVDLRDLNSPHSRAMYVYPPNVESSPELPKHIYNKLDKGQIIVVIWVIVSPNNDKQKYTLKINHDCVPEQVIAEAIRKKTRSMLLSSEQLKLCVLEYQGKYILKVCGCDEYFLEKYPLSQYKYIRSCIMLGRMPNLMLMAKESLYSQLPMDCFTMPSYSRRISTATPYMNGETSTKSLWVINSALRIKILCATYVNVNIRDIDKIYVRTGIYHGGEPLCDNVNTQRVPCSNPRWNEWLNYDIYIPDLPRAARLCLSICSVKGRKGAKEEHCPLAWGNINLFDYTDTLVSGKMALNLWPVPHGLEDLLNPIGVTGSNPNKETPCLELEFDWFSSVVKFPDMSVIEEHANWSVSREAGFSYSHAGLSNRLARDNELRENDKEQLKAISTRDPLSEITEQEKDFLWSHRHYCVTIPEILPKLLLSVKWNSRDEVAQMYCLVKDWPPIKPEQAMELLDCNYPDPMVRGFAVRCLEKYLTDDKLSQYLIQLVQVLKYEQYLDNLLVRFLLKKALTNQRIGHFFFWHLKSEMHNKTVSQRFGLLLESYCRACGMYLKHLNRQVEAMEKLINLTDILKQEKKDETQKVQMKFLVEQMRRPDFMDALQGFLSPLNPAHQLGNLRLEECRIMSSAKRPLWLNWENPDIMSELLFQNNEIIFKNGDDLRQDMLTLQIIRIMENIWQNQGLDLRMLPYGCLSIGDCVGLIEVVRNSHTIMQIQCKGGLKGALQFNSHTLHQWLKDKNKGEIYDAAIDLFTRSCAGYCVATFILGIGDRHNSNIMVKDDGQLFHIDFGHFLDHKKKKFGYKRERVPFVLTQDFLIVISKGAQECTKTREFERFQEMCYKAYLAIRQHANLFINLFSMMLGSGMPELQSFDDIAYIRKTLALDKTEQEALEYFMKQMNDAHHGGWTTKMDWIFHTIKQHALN
row,SMILES,pIC50
1,CC[C@H]1CCc2c(ncnc2N2CCOc3ccc(-c4cnc(N)c(S(=O)(=O)N5CCC(C)(N)C5)c4)cc3C2)C1 (some centres not stated),7.30 to 8.00
2,COc1ccccc1Cc1c(C)ncnc1N1CCOc2ccc(-c3ccc4nc(C)[nH]c4c3)cc2C1,6.60 to 7.30
3,Cc1nc2ncc(-c3ccc4c(c3)CN(c3ncnc5c3CC[C@H](C)C5)CCO4)cc2[nH]1,7.30 to 8.00
4,Cc1nc2ccc(-c3ccc4c(c3)CN(c3ncnc5c(C(F)(F)F)cccc35)CCO4)cc2[nH]1,6.00 to 6.60
5,Cc1nc2cc(-c3ccc4c(c3)CN(c3nc(NCCN(C)C)nc(C)c3Cc3ccc(F)cc3)CCO4)ccc2[nH]1,7.30 to 8.00
6,CC1(C)CCc2ncnc(N3CCOc4ccc(-c5ccc6[nH]c(C(F)F)nc6c5)cc4C3)c2C1,7.30 to 8.00
7,CCOC(=O)c1nc(N2CCOc3ccc(-c4ccc5nc(C)[nH]c5c4)cc3C2)c2ccccc2n1,6.60 to 7.30
8,CC1(C)CCc2ncnc(N3CCOc4ccc(-c5ccc6nc(N)[nH]c6c5)cc4C3)c2C1,6.60 to 7.30
9,CC1(C)CCc2ncnc(N3CCOc4ccc(-c5cnc(N)c(S(=O)(=O)N6CCC6)c5)cc4C3)c2C1,7.30 to 8.00
10,Cc1nc2ccc(-c3ccc4c(c3)CN(c3nc(CN(C)C)nc(C)c3CC3CC3)CCO4)cc2[nH]1,7.30 to 8.00
11,Cc1nc2ccc(-c3ccc4c(c3)CN(c3ncnc(C)c3Cc3cccc(Cl)c3)CCO4)cc2[nH]1,7.30 to 8.00
12,Nc1nc2ncc(-c3ccc4c(c3)CN(c3ncnc5ccc(F)cc35)CCO4)cc2[nH]1,≥ 8.00
13,Cc1ccc(Cc2c(C)ncnc2N2CCOc3ccc(-c4ccc5nc(C)[nH]c5c4)cc3C2)cc1,6.60 to 7.30
14,COc1ccc2nc(Cl)nc(N3CCOc4ccc(-c5ccc6nc(C)[nH]c6c5)cc4C3)c2c1,6.00 to 6.60
15,CC1(C)CCc2ncnc(N3CCOc4ccc(-c5cnc(N)c(S(=O)(=O)NCC(O)CN)c5)cc4C3)c2C1 (configuration not stated),≥ 8.00
16,CC1(C)CCc2ncnc(N3CCOc4ccc(-c5cnc(N)c(S(=O)(=O)NC(C)(C)CO)c5)cc4C3)c2C1,6.60 to 7.30
17,c1ccc2c(N3CCOc4ccc(-c5ccc6nc[nH]c6c5)cc4C3)ncnc2c1,7.30 to 8.00
18,Cc1ncnc(N2CCOc3ccc(-c4ccc5sc(N)nc5n4)cc3C2)c1Cc1ccc(F)cc1,7.30 to 8.00
19,Cc1nc2cc(-c3ccc4c(c3)CN(c3nc(CN(C)C)nc(C)c3-c3ccccc3)CCO4)ccc2[nH]1,6.60 to 7.30
20,Cc1ncnc(N2CCOc3ccc(-c4ccc5[nH]c(NCCF)nc5c4)cc3C2)c1Cc1ccc(F)cc1,7.30 to 8.00
21,CC1(C)CCc2ncnc(N3CCOc4ccc(-c5cnc(N)c(S(=O)(=O)N6C7CCC6CC(N)C7)c5)cc4C3)c2C1 (configuration not stated),7.30 to 8.00

row,SMILES,pIC50
1,COc1ccc2c(N3CCOc4ccc(-c5cnc6[nH]c(C)nc6c5)cc4C3)nc(C)nc2c1,≥ 8.00
2,Cc1nc2cc(-c3ccc4c(c3)CN(c3ncnc(C)c3Cc3ccc(F)cc3)CCO4)cnc2[nH]1,7.30 to 8.00
3,Cc1nc2ccc(-c3ccc4c(c3)CN(c3ncnc5ccc(OCCCN(C)C)cc35)CCO4)cc2[nH]1,6.00 to 6.60
4,Cc1nc2ncc(-c3ccc4c(c3)CN(c3ncncc3C)CCO4)cc2[nH]1,6.00 to 6.60
5,CNC(=O)Nc1ccc(-c2ccc3c(c2)CN(c2nc(C)nc4cc(OC)ccc24)CCO3)cc1,6.60 to 7.30
6,CCOC(=O)Nc1nc2ncc(-c3ccc4c(c3)CN(c3ncnc5c3CC(C)(C)CC5)CCO4)cc2[nH]1,6.60 to 7.30
7,COc1ccc2c(N3CCOc4ccc(-c5ccc6nc[nH]c6c5)cc4C3)nc(C)nc2c1,≥ 8.00
8,Cc1nc2ccc(-c3ccc4c(c3)CN(c3ncnc5ccc(O)cc35)CCO4)cc2[nH]1,6.60 to 7.30
9,COc1ccc(-c2ccc3c(c2)CN(c2nc(CN(C)C)nc4c2CC(C)(C)CC4)CCO3)cc1OC(F)F,7.30 to 8.00
10,CC1(C)CCc2ncnc(N3CCOc4ccc(-c5cnc(N)nc5)cc4C3)c2C1,6.00 to 6.60
11,CNC(=O)c1ccc(-c2ccc3c(c2)CN(c2nc(CN(C)C)nc4c2CC(C)(C)CC4)CCO3)cc1,6.60 to 7.30
12,CC1(C)CCc2ncnc(N3CCOc4ccc(-c5cnc(N)c(S(=O)(=O)NCCN)c5)cc4C3)c2C1,7.30 to 8.00
13,Cc1nc2ccc(-c3ccc4c(c3)CN(c3ncnc5c3CCN(Cc3ccccc3)C5)CCO4)cc2[nH]1,6.00 to 6.60
14,CC1(C)C=Cc2ncnc(N3CCOc4ccc(-c5ccc(-c6ncc[nH]6)cc5)cc4C3)c2C1,7.30 to 8.00
15,Cc1nc2ccc(-c3ccc4c(c3)CN(c3ncnc5cc(C(F)(F)F)ccc35)CCO4)cc2[nH]1,6.60 to 7.30
16,Cc1nc2ncc(-c3ccc4c(c3)CN(c3ncnc5c3CC(C)(C)C=C5)CCO4)cc2[nH]1,7.30 to 8.00
17,COC(=O)Nc1nc2ccc(-c3ccc4c(c3)CN(c3ccnc5ccccc35)CCO4)cc2n1C,6.00 to 6.60
18,Cc1ncnc(N2CCOc3ccc(-c4ccc(N)nn4)cc3C2)c1Cc1ccc(F)cc1,6.00 to 6.60
19,CC(C)(O)CCS(=O)(=O)c1cc(-c2ccc3c(c2)CN(c2ncnc4c2CC(C)(C)CC4)CCO3)cnc1N,7.30 to 8.00
20,Nc1nc2ncc(-c3ccc4c(c3)CN(c3ncnc5ccc(I)cc35)CCO4)cc2[nH]1,≥ 8.00
21,C[C@@H](CO)CS(=O)(=O)c1cc(-c2ccc3c(c2)CN(c2ncnc4c2CC(C)(C)CC4)CCO3)cnc1N,≥ 8.00

row,SMILES,pIC50
1,CC[C@H]1CCc2c(ncnc2N2CCOc3ccc(-c4cnc5nc(C)[nH]c5c4)cc3C2)C1,≥ 8.00
2,Cn1c(N)nc2cc(-c3ccc4c(c3)CN(c3ccnc5ccccc35)CCO4)ccc21,6.00 to 6.60
3,Cc1nc2ccc(-c3ccc4c(c3)CN(c3ccnc5cc(F)ccc35)CCO4)cc2[nH]1,≥ 8.00
4,COC(=O)Nc1nc2ccc(-c3ccc4c(c3)CN(c3ncnc(C)c3Cc3ccc(F)cc3)CCO4)cc2[nH]1,≥ 8.00
5,CC1(C)CCc2ncnc(N3CCOc4ccc(-c5cnc(N)c(S(=O)(=O)N6CC7(CNC7)C6)c5)cc4C3)c2C1,7.30 to 8.00
6,CCNc1nc2ccc(-c3ccc4c(c3)CN(c3cc(Nc5ccc(OC)cc5)ncn3)CCO4)cc2[nH]1,6.00 to 6.60
7,CC1(C)CCc2ncnc(N3CCOc4ccc(-c5cnc(C#N)c(NS(C)(=O)=O)c5)cc4C3)c2C1,6.60 to 7.30
8,CCNc1nc2ccc(-c3ccc4c(c3)CN(c3nc(C)nc(Nc5ccccc5)c3C)CCO4)cc2[nH]1,6.60 to 7.30
9,CN1CCN(S(=O)(=O)c2cc(-c3ccc4c(c3)CN(c3ncnc5c3CC(C)(C)CC5)CCO4)cnc2N)CC1,6.60 to 7.30
10,Cc1nc2ccc(-c3ccc4c(c3)CN(c3ccnc(C)c3Cc3cccc(F)c3)CCO4)cc2[nH]1,≥ 8.00
11,CC1(C)CCc2ncnc(N3CCOc4ccc(-c5cnc(N)c(S(=O)(=O)NC6CC7CCC(C6)N7)c5)cc4C3)c2C1 (configuration not stated),6.60 to 7.30
12,CC1(C)CCc2ncnc(N3CCOc4ccc(-c5cnc6nc(N)[nH]c6c5)cc4C3)c2C1,≥ 8.00
13,CCCNC(=O)c1ccc(-c2ccc3c(c2)CN(c2ccnc4ccccc24)CCO3)cc1,6.00 to 6.60
14,CCNc1nc2ccc(-c3ccc4c(c3)CN(c3cc(Nc5cccc(OC)c5)ncn3)CCO4)cc2[nH]1,6.00 to 6.60
15,Cc1nc2ccc(-c3ccc4c(c3)CN(c3ncnc(C)c3Cc3ccccc3)CCO4)cc2[nH]1,7.30 to 8.00
16,Cc1nc2ncc(-c3ccc4c(c3)CN(c3nc(CNCC(F)(F)F)nc5c3CC(C)(C)CC5)CCO4)cc2[nH]1,6.60 to 7.30
17,Cc1c(Nc2ccccc2)ncnc1N1CCOc2ccc(-c3cnc4nc(N)[nH]c4c3)cc2C1,≥ 8.00
18,Cc1nc(Nc2ccccc2)c(C)c(N2CCOc3ccc(-c4ccc5nc[nH]c5c4)cc3C2)n1,6.60 to 7.30
19,Cc1nc(CN(C)C)nc(N2CCOc3ccc(-c4ccc5[nH]c(C(F)F)nc5c4)cc3C2)c1Cc1ccc(F)cc1,≥ 8.00
20,CC1(C)CCc2ncnc(N3CCOc4ccc(-c5cnc(N)c(S(=O)(=O)N6CCC(C)(N)C6)c5)cc4C3)c2C1 (configuration not stated),7.30 to 8.00
